Series [1] can be described thus: Cytotoxicity against Homo sapiens (human) FL cells assessed as cell viability at 10^-4 M after 96 hr by trypan blue exclusion assay relative to control. The series is classed as cell-based. Conditions: read-out: Activity.
Series [2] deals with A2058. Put plainly: Cytotoxicity against Homo sapiens (human) A2058 cells assessed as cell viability at 10^-4 M after 48 hr by trypan blue exclusion assay relative to control. Format: functional. Conditions: A2058, 48 h, read-out: Activity.
Series [3] concerns A2058. Briefly: Cytotoxicity against Homo sapiens (human) A2058 cells assessed as cell viability at 10^-4 M after 96 hr by trypan blue exclusion assay relative to control. The series is classed as functional. The following applies: A2058, 96 h, read-out: Activity.
Series [4] relates to A2058. Put plainly: Cytotoxicity against Homo sapiens (human) A2058 cells assessed as cell viability at 10^-4 M after 72 hr by trypan blue exclusion assay relative to control. Format: functional. The following applies: A2058, 72 h, read-out: Activity.
For series [5], the system named is RD. Put plainly: Cytotoxicity against Homo sapiens (human) RD cells assessed as cell viability at 10^-4 M after 24 hr by trypan blue exclusion assay relative to control. Format: functional. Conditions: read-out: Activity.
Series [6] deals with RD. Briefly: Cytotoxicity against Homo sapiens (human) RD cells assessed as cell viability at 10^-4 M after 48 hr by trypan blue exclusion assay relative to control. Format: functional. Conditions: read-out: Activity.
A short description of series [7]: Cytotoxicity against Homo sapiens (human) FL cells assessed as cell viability at 10^-4 M after 24 hr by trypan blue exclusion assay relative to control. Format: cell-based. Conditions: read-out: Activity.
Series [8] in a line: Cytotoxicity against Homo sapiens (human) FL cells assessed as cell viability at 10^-4 M after 48 hr by trypan blue exclusion assay relative to control. The series is classed as cell-based. Conditions: read-out: Activity.
In series [9] the test system is RD. Briefly: Cytotoxicity against Homo sapiens (human) RD cells assessed as cell viability at 10^-4 M after 96 hr by trypan blue exclusion assay relative to control. Format: functional. Conditions: read-out: Activity.
Series [10] relates to A2058. Briefly: Cytotoxicity against Homo sapiens (human) A2058 cells assessed as cell viability at 10^-4 M after 24 hr by trypan blue exclusion assay relative to control. The series is classed as functional. Conditions: A2058, 24 h, read-out: Activity.
Series [11] has as its system RD. Briefly: Cytotoxicity against Homo sapiens (human) RD cells assessed as cell viability at 10^-4 M after 72 hr by trypan blue exclusion assay relative to control. The series is classed as functional. The following applies: read-out: Activity.
A short description of series [12]: Cytotoxicity against Homo sapiens (human) FL cells assessed as cell viability at 10^-4 M after 72 hr by trypan blue exclusion assay relative to control. The series is classed as cell-based. Conditions: read-out: Activity.

Our source for the viability values is ChEMBL document CHEMBL3046438, “Synthesis and Cytotoxic Evaluation of 1,2,3-Trisubstituted 2-(2-Oxoalkyl)-2,3-dihydrobenzimidazoles” (Med Chem Res, 2005).

On to `CCOC(=O)N1c2ccccc2N(C(=O)OCC)C1CC(=O)/C=C/c1ccccc1`, for which, in series [1], the viability at 96 h, 100 µM worked out at 81.1%. Moreover, the viability at 100 µM with A2058 [2] was determined as 12.1%; in the series with A2058 [3], 7.14%; in the series on A2058 [4], 8.14%; in the series on RD [5], 45.5%; in the series with RD [6] it was 59.1%; with RD [9] it was 39.4%. Moreover, the values for the viability at 100 µM in the series on A2058 [10] and in the series with RD [11] were 14.7% and 52.9%, respectively. Besides, the viability at 24 h, 100 µM in series [7] worked out at 111%. Also, the viability at 48 h, 100 µM in series [8] worked out at 77.9%. The viability at 72 h, 100 µM in [12] is 83.6%.
Take `CCOC(=O)N1c2ccccc2N(C(=O)OCC)C1CC(C)=O`: the viability at 96 h, 100 µM in [1] was found to be 0%. Moreover, the viability at 100 µM in the series with A2058 [2], in the series with A2058 [3], in the series on A2058 [4], in the series with RD [5], in the series on RD [6] and in the series with RD [9] was 0% throughout. Further, the viability at 100 µM in the series with A2058 [10] and in the series on RD [11] was 0% each time. In addition, the viability at 24 h, 100 µM in series [7] was 0%. Also, in [8], the viability at 48 h, 100 µM is 0%. Further, the viability at 72 h, 100 µM in series [12] was 0%.
Consider `CCOC(=O)N1c2cc(C)c(C)cc2N(C(=O)OCC)C1CC(C)=O`, for which, in [1], the viability at 96 h, 100 µM was 39.4%. Further, the viability at 100 µM in the series with A2058 [2] was found to be 57.6%; in the series on A2058 [3], 70.4%; with A2058 [4] it was 69.8%; in the series on RD [5], 31.2%; in the series on RD [6] it was 40.9%; in the series with RD [9], 17.9%. For the same compound, the viability at 100 µM in the series with A2058 [10] is 82.3%; in the series on RD [11], 24.3%. In [7], the viability at 24 h, 100 µM is 111%. Further, the viability at 48 h, 100 µM in [8] was found to be 31.2%. The viability at 72 h, 100 µM in [12] was 15.4%.
On to `CCOC(=O)N1c2ccccc2N(C(=O)OCC)C1CC(=O)c1ccccc1`, for which the viability at 96 h, 100 µM in [1] turned out to be 77.3%. Also, the viability at 100 µM in the series on A2058 [2] is 106%; in the series with A2058 [3] it was 65.3%; with A2058 [4], 53.5%; in the series with RD [5], 86.4%; in the series with RD [6], 93.2%; in the series with RD [9] it was 88.1%. Also, the viability at 100 µM in the series with A2058 [10] amounted to 94.1%; in the series with RD [11], 92.9%. In addition, the viability at 24 h, 100 µM in series [7] was 75.7%. Moreover, in series [8], the viability at 48 h, 100 µM stood at 83.1%. Further, the viability at 72 h, 100 µM in [12] worked out at 74.5%.
For the compound `CCOC(=O)N1c2cc(C)c(C)cc2N(C(=O)OCC)C1CC(=O)c1ccccc1`, in series [1], the viability at 96 h, 100 µM came out at 62.1%. Moreover, the viability at 100 µM with A2058 [2] was 83.3%; with A2058 [3] it was 31.6%; with A2058 [4] it was 50%; in the series on RD [5] it was 45.5%; in the series with RD [6], 52.3%; in the series on RD [9], 32.1%. The values for the viability at 100 µM with A2058 [10] and in the series on RD [11] were 97.1% and 47.1%, respectively. In series [7], the viability at 24 h, 100 µM is 67.6%. In addition, the viability at 48 h, 100 µM in series [8] came out at 46.8%. In addition, the viability at 72 h, 100 µM in series [12] worked out at 60%.
For `CCOC(=O)N1c2ccccc2N(C(=O)OCC)C1CC(=O)c1ccc(O)cc1`, in [1], the viability at 96 h, 100 µM stood at 4.55%. Also, the viability at 100 µM in the series on A2058 [2] worked out at 12.1%; in the series on A2058 [3], 6.12%; with A2058 [4], 9.3%; in the series with RD [5], 27.3%; in the series with RD [6], 13.6%; in the series on RD [9] it was 3.57%. The viability at 100 µM stood at 35.3% with A2058 [10] and 5.71% in the series with RD [11]. Also, the viability at 24 h, 100 µM in series [7] turned out to be 29.7%. For the same compound, the viability at 48 h, 100 µM in [8] is 11.7%. Besides, the viability at 72 h, 100 µM in [12] worked out at 7.27%.
As to `CCOC(=O)N1c2cc(C)c(C)cc2N(C(=O)OCC)C1CC(=O)c1ccc(OC)cc1`, the viability at 96 h, 100 µM in series [1] came out at 65.9%. Besides, the viability at 100 µM turned out to be 54.5% in the series on A2058 [2]; 33.7% in the series with A2058 [3]; 38.4% in the series on A2058 [4]; 31.2% in the series on RD [5]; 43.2% in the series on RD [6]; 57.1% in the series with RD [9]. Moreover, the results for the viability at 100 µM in the series on A2058 [10] and in the series with RD [11] were 55.9% and 58.6%, respectively. Besides, the viability at 24 h, 100 µM in [7] was 75.7%. Besides, the viability at 48 h, 100 µM in series [8] came out at 49.4%. The viability at 72 h, 100 µM in series [12] was determined as 63.6%.
`CCOC(=O)N1c2ccccc2N(C(=O)OCC)C1CC(=O)Cc1ccccc1`: the viability at 96 h, 100 µM in [1] worked out at 3.03%. Further, the viability at 100 µM in the series on A2058 [2] came to 21.2%; with A2058 [3], 6.12%; with A2058 [4], 11.6%; in the series on RD [5], 63.6%; with RD [6], 31.8%; with RD [9], 11.9%. Besides, the viability at 100 µM in the series with A2058 [10] turned out to be 41.2%; with RD [11] it was 14.3%. The viability at 24 h, 100 µM in series [7] was 27%. Besides, the viability at 48 h, 100 µM in [8] came out at 10.4%. Besides, the viability at 72 h, 100 µM in series [12] came out at 5.45%.
Take `CCOC(=O)N1c2cc(C)c(C)cc2N(C(=O)OCC)C1CC(=O)/C=C/c1ccccc1`: the viability at 96 h, 100 µM in series [1] turned out to be 74.2%. Also, the viability at 100 µM in the series with A2058 [2] came out at 86.4%; with A2058 [3] it was 75.5%; in the series with A2058 [4], 80.2%; in the series with RD [5] it was 86.4%; in the series with RD [6] it was 70.5%; in the series on RD [9], 79.8%. In addition, the viability at 100 µM came to 82.3% in the series with A2058 [10] and 81.4% in the series on RD [11]. The viability at 24 h, 100 µM in series [7] was found to be 94.6%. The viability at 48 h, 100 µM in series [8] worked out at 67.5%. For the same compound, in series [12], the viability at 72 h, 100 µM was found to be 60%.
